Results from publication PMC11638965, “Leveraging Dual-Ligase Recruitment to Enhance Protein Degradation via a Heterotrivalent Proteolysis Targeting Chimera” (Journal of the American Chemical Society, 2024).
Entries after “also recorded” stand apart in the source; their conditions may differ. Read-outs that look alike come from different tables or passages of the source.

What was measured:
[1] = system: RKO CRBN/VHL dKO cells; experiment: Cell viability assay (CellTiter-Glo); format: cell-based, human; conditions: read-out: EC50 RKO CRBN/VHL dKO
Procedure: (§1) RKO WT, VHL KO, CRBN KO and CRBN/VHL dKO cells were cultured in Dulbecco’s modified Eagle’s medium supplemented with 10% FCS and 1% penicillin–streptomycin. RKO CRBN KO and VHL KO were generated previously.[45] RKO CRBN/VHL dKO cells were generated by transiently expressing pSpCas9(BB)-2A-GFP (PX458) (Addgene 48138) loaded with a short guide RNA (sgRNA) targeting VHL (Fwd: […], Rev: […]) in RKO CRBN KO cells. Clones were single cell seeded and checked for VHL and CRBN double deletion via Western blot or PCR on genomic DNA (gDNA).
(§2) Cells were seeded in 96-well plates at a cell density of 3750 cells per well and treated for 3 days with DMSO or drug at ten √10 serial diluted concentrations. Starting concentration for all drugs was 10 μM, and each treatment was performed in biological triplicates. Cell viability was assessed using the CellTiter-Glo assay (CellTiter-Glo Luminescent Cell Viability Assay, Promega G7573) according to manufacturer instructions. Luminescence signal was measured on a Multilabel Plate Reader Platform Victor X3 model 2030 (PerkinElmer). Survival curves and EC50 values were determined using GraphPad Prism v.10.0.3 by fitting a nonlinear regression to the log10-transformed drug concentration and the relative viability after normalization of each data point to the mean luminescence of the lowest drug concentration.

[2] = target: CRBN (Homo sapiens, UniProt Q96SW2); experiment: NanoBRET lytic and live cell target engagement assay; format: binding; set-up: host or cells: HEK293, transient; conditions: for IC50: HEK293 cells with NanoLuc-CRBN, CRBN fluorescent tracer
Procedure: CRBN (N2910, Promega) and VHL (N2930, Promega) NanoBRET target engagement assays were performed according to manufacturer’s instructions. Transfection complexes were prepared using 1 mL Opti-MEM, 30 μL FuGENE HD, and either 9 μg/mL DDB1 Expression Vector and 1 μg/mL NanoLuc-CRBN fusion vector, or 9 μg/mL Transfection Carrier DNA and 1 μg/mL VHL-NanoLuc fusion vector. Transfection complexes were allowed to form for 20 min at room temperature, then were added to 20 mL of HEK293 cells at density of 200,000 cells/mL. Transfected HEK293 cells were plated in a T75 flask and allowed to express protein overnight. The next day, 85 μL of transfected cells (at 200,000 cells/mL) were replated in white nonbinding 96-well plates for live and lytic target engagement measurements. For live mode, a 100x solution of NanoBRET tracer was prepared using 100% DMSO (50 μM for CRBN live-cell, 100 μM for VHL live-cell). 100x tracer was used to prepare 20× tracer using tracer dilution buffer. PROTACs or test compounds were prepared at 10x final concentrations in Opti-MEM. Five μL of the prepared tracer was then dispensed to each well and the plate was mixed on an orbital shaker at 300 rpm for 15 s. Ten μL of each 10x PROTAC dilution was added to the cells and the plate was mixed again before being incubated at a 37 °C, 5% CO2 incubator for 2 or 5 h (as indicated in each figure). After incubation, a 50 μL of a 3X substrate solution (containing 30 μL NanoBRET Nano-Glo Substrate, 10 μL Extracellular NanoLuc inhibitor, and 4960 μL of Opti-MEM) was added to each well. Plates were incubated for 2–3 min at room temperature, then donor emission (450 nm) and acceptor emission (at 610 nm) values were read using a GloMax Discover. For lytic mode, the following changes were made. […] Plates were incubated in darkness for 5 min after digitonin addition to allow for permeabilization. 50 μL of 3X substrate (30 μL NanoBRET Nano-Glo substrate and 4970 μL Opti-MEM) was added to each well and plates were incubated for 1 min at room temperature before being read on a GloMax Discover as above.

[3] = system: RKO VHL KO cells; experiment: Cell viability assay (CellTiter-Glo); format: cell-based, human
Procedure: as §1, §2

[4] = system: RKO CRBN KO cells; experiment: Cell viability assay (CellTiter-Glo); format: cell-based, human; conditions: 500 pM to 10 μM, 3 days (Figure 10, Table S6)
[5] = Homo sapiens, 72 h, 316 pM to 10 μM, 3 days, n = 3 (Figures 5 and 8C, Table S5)
[6] = live cells 2 h, read-out: IC50 (Live Cell), Target: CRBN
[7] = lysed with digitonin, read-out: IC50 (Lytic Cell), Target: CRBN
[8] = Homo sapiens, 72 h, 500 pM to 10 μM, 3 days (Figure 10, Table S6)

Sequence of CRBN (Q96SW2 whole entry, the tested form may be a part): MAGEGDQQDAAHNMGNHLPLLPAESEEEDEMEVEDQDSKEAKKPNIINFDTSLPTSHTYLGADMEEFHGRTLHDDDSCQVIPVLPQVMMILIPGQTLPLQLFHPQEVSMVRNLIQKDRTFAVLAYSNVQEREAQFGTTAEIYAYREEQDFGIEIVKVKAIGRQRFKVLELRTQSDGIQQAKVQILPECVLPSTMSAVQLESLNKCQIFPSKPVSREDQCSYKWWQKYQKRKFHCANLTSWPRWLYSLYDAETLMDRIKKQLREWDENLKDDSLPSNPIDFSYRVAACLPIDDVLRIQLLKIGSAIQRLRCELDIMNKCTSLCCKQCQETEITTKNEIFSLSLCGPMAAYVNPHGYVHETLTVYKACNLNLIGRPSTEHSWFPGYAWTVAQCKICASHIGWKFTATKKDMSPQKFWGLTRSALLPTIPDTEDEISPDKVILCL
Sequence of CRBN (Q16531 whole entry partner, the tested form may be a part): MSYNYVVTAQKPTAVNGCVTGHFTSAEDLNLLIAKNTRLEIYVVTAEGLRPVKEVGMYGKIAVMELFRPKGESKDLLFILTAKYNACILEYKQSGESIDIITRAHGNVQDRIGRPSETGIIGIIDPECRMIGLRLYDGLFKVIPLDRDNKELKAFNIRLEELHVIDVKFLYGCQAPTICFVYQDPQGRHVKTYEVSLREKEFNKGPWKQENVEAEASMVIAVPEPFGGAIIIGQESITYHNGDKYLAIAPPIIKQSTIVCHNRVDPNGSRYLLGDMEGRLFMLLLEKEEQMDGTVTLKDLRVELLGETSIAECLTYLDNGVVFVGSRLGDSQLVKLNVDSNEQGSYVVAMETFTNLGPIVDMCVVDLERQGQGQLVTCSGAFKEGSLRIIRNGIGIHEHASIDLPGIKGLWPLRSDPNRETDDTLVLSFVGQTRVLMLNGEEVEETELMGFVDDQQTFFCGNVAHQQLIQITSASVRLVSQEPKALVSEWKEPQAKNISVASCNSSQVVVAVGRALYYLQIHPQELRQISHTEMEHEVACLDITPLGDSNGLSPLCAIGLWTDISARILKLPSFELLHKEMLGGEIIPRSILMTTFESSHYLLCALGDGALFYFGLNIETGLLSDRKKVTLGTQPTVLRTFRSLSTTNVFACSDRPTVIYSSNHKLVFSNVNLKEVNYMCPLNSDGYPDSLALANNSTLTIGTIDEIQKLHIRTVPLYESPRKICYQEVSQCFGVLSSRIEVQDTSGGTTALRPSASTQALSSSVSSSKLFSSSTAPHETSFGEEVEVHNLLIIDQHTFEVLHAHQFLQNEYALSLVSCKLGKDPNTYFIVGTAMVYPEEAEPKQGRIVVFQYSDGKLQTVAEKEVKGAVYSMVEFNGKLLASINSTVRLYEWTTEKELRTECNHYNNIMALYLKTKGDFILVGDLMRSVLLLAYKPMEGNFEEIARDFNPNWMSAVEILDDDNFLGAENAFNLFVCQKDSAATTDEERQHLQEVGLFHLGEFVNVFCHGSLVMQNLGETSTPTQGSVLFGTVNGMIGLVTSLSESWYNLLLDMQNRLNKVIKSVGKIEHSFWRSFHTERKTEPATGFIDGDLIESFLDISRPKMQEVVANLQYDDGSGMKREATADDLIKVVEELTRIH

Row | IC50 [2, 6] | IC50 [2, 7] | fold stronger engagement of CRBN over 26, live cell format ([2]; 27 vs 26) | Compound | EC50 [1, 5] | EC50 [1, 8] | EC50 ([3]; 316 pM to 10 μM, 3 days, n = 3 (Figures 5 and 8C, Table S5), listed as 27) | EC50 [3, 5] | EC50 [3, 8] | EC50 ([4]; Homo sapiens, 72 h) | EC50 ([3]; 316 pM to 10 μM, 3 days, n = 3 (Figures 5 and 8C, Table S5), listed as 86) | EC50 ([1]; 500 pM to 10 μM, 3 days (Figure 10, Table S6), listed as 94) | EC50 ([4]; listed as 94) | CRBN engagement compared to 27 (in words) ([2]; lytic, live cell 2 h and 5 h (Figure S6), listed as 94)
1 | 1560 nM | 412 nM |  | Cc1ncsc1-c1ccc(CNC(=O)[C@@H]2C[C@@H](O)CN2C(=O)[C@@H](NC(=O)COCC(C)(COCCOCCOCCNc2cc3c(cc2F)C(=O)N(C2CCC(=O)NC2=O)C3=O)COCCOCCOCCOC(=O)C[C@@H]2N=C(c3ccc(Cl)cc3)c3c(sc(C)c3C)-n3c(C)nnc32)C(C)(C)C)cc1 (mixture of isomers) [AB3063 (26), (17S)-11-((2-(2-(2-((2-(2,6-dioxopiperidin-3-yl)-6-fluoro-1,3-dioxoisoindolin-5-yl)amino)ethoxy)ethoxy)ethoxy)methyl)-17-((2S,4R)-4-hydroxy-2-((4-(4-methylthiazol-5-yl)benzyl)carbamoyl)pyrrolidine-1-carbonyl)-11,18,18-trimethyl-15-oxo-3,6,9,13-tetraoxa-16-azanonadecyl 2-((S)-4-(4-chlorophenyl)-2,3,9-trimethyl-6H-thieno[3,2-f][1,2,4]triazolo[4,3-a][1,4]diazepin-6-yl)acetate] | 2240 nM |  |  |  |  |  |  |  |  | 
2 | 624 nM | 190 nM | 2.5 fold | Cc1ncsc1-c1ccc([C@H](C)NC(=O)[C@@H]2C[C@@H](O)CN2C(=O)[C@@H](NC(=O)COCC(C)(COCCOCCOCCNc2cc3c(cc2F)C(=O)N(C2CCC(=O)NC2=O)C3=O)COCCOCCOCCOC(=O)C[C@@H]2N=C(c3ccc(Cl)cc3)c3c(sc(C)c3C)-n3c(C)nnc32)C(C)(C)C)cc1 (mixture of isomers) [AB3067 (27), (17S)-11-((2-(2-(2-((2-(2,6-dioxopiperidin-3-yl)-6-fluoro-1,3-dioxoisoindolin-5-yl)amino)ethoxy)ethoxy)ethoxy)methyl)-17-((2S,4R)-4-hydroxy-2-(((S)-1-(4-(4-methylthiazol-5-yl)phenyl)ethyl)carbamoyl)pyrrolidine-1-carbonyl)-11,18,18-trimethyl-15-oxo-3,6,9,13-tetraoxa-16-azanonadecyl 2-((S)-4-(4-chlorophenyl)-2,3,9-trimethyl-6H-thieno[3,2-f][1,2,4]triazolo[4,3-a][1,4]diazepin-6-yl)acetate] | 988 nM | 818 nM | 180 nM | 133 nM | 110 nM | 82 nM |  |  |  | 
3 |  |  |  | Cc1ncsc1-c1ccc(CNC(=O)[C@@H]2C[C@@H](O)CN2C(=O)[C@@H](NC(=O)COCC(COCCOCCOCCNc2cc3c(cc2F)C(=O)N(C2CCC(=O)NC2=O)C3=O)(COCCOCCOCCOC(=O)C[C@@H]2N=C(c3ccc(Cl)cc3)c3c(sc(C)c3C)-n3c(C)nnc32)COCCOCCOCCOC(=O)C[C@@H]2N=C(c3ccc(Cl)cc3)c3c(sc(C)c3C)-n3c(C)nnc32)C(C)(C)C)cc1 (mixture of isomers) [AB3124 (86)] | 16 nM |  |  | 62 nM |  |  | 34 nM |  |  | 
4 |  |  |  | Cc1ncsc1-c1ccc([C@H](C)NC(=O)[C@@H]2C[C@H](O)CN2C(=O)[C@@H](NC(=O)COCC(C)(COCCOCCOCCNc2cc3c(cc2F)C(=O)N(C2CCC(=O)NC2=O)C3=O)COCCOCCOCCOC(=O)C[C@@H]2N=C(c3ccc(Cl)cc3)c3c(sc(C)c3C)-n3c(C)nnc32)C(C)(C)C)cc1 (mixture of isomers) [cis-AB3067 (94), (17S)-11-((2-(2-(2-((2-(2,6-dioxopiperidin-3-yl)-6-fluoro-1,3-dioxoisoindolin-5-yl)amino)ethoxy)ethoxy)ethoxy)methyl)-17-((2S,4S)-4-hydroxy-2-(((S)-1-(4-(4-methylthiazol-5-yl)phenyl)ethyl)carbamoyl)pyrrolidine-1-carbonyl)-11,18,18-trimethyl-15-oxo-3,6,9,13-tetraoxa-16-azanonadecyl 2-((S)-4-(4-chlorophenyl)-2,3,9-trimethyl-6H-thieno[3,2-f][1,2,4]triazolo[4,3-a][1,4]diazepin-6-yl)acetate] |  | 804 nM |  |  | 48 nM | 832 nM |  | ~820 nM | ~820 nM | slight improvement in binding to CRBN after 2 h; also recorded: even greater binding to CRBN after 5 h compared to 27
5 |  |  |  | Cc1ncsc1-c1ccc([C@H](C)NC(=O)[C@@H]2C[C@H](O)CN2C(=O)[C@@H](NC(=O)COCC(C)(COCCOCCOCCNc2cc3c(cc2F)C(=O)N(C2CCC(=O)N(C)C2=O)C3=O)COCCOCCOCCOC(=O)C[C@@H]2N=C(c3ccc(Cl)cc3)c3c(sc(C)c3C)-n3c(C)nnc32)C(C)(C)C)cc1 (mixture of isomers) [neg-cis-AB3067 (95), (17S)-11-((2-(2-(2-((6-fluoro-2-(1-methyl-2,6-dioxopiperidin-3-yl)-1,3-dioxoisoindolin-5-yl)amino)ethoxy)ethoxy)ethoxy)methyl)-17-((2S,4S)-4-hydroxy-2-(((S)-1-(4-(4-methylthiazol-5-yl)phenyl)ethyl)carbamoyl)pyrrolidine-1-carbonyl)-11,18,18-trimethyl-15-oxo-3,6,9,13-tetraoxa-16-azanonadecyl 2-((S)-4-(4-chlorophenyl)-2,3,9-trimethyl-6H-thieno[3,2-f][1,2,4]triazolo[4,3-a][1,4]diazepin-6-yl)acetate] |  | 657 nM |  |  | 522 nM | 586 nM |  |  |  | 
